Measurements as given in ChEMBL document CHEMBL3608264, “Novel antibacterial active quinolone-fluoroquinolone conjugates and 2D-QSAR studies” (2015).
In brackets after ≈: the same amount, converted by molar mass.

Experiments:
[1] = system: Salmonella typhimurium; test: Antimicrobial activity against Salmonella typhimurium ATCC 19430 incubated for 18 hrs by agar dilution method; assay type: functional, Salmonella enterica subsp. enterica serovar Typhimurium; conditions: Salmonella enterica, ATCC 19430, 18 h
[2] = system: Staphylococcus aureus; test: Antimicrobial activity against Staphylococcus aureus ATCC 25923 incubated for 18 hrs by agar dilution method; assay type: functional; conditions: ATCC 25923, 18 h
[3] = system: Streptococcus pyogenes; test: Antimicrobial activity against Streptococcus pyogenes ATCC 19615 incubated for 18 hrs by agar dilution method; assay type: functional; conditions: ATCC 19615, 18 h
[4] = system: Pseudomonas aeruginosa; test: Antimicrobial activity against Pseudomonas aeruginosa ATCC 27853 incubated for 18 hrs by agar dilution method; assay type: functional; conditions: ATCC 27853, 18 h

Row | SMILES | MIC [1] | MIC [2] | MIC [3] | MIC [4]
1 | CCn1cc(C(=O)NCC(=O)N2CCN(c3cc4c(cc3F)c(=O)c(C(=O)O)cn4C3CC3)CC2)c(=O)c2cc3c(cc21)OCO3 | 7.6 µM (≈ 4.8 µg/mL) |  |  | 
2 | CCn1cc(C(=O)NCCC(=O)N2CCN(c3cc4c(cc3F)c(=O)c(C(=O)O)cn4C3CC3)CC2)c(=O)c2cc3c(cc21)OCO3 | 7.4 µM (≈ 4.78 µg/mL) | 1940 µM (≈ 1250 µg/mL) | 1940 µM (≈ 1250 µg/mL) | 1940 µM (≈ 1250 µg/mL)
3 | CCn1cc(C(=O)NCCCC(=O)N2CCN(c3cc4c(cc3F)c(=O)c(C(=O)O)cn4C3CC3)CC2)c(=O)c2cc3c(cc21)OCO3 | 59.1 µM (≈ 39 µg/mL) | 1890 µM (≈ 1250 µg/mL) | 1890 µM (≈ 1250 µg/mL) | 1890 µM (≈ 1250 µg/mL)
4 | CC[C@H](C)[C@H](NC(=O)c1cn(CC)c2cc3c(cc2c1=O)OCO3)C(=O)N1CCN(c2cc3c(cc2F)c(=O)c(C(=O)O)cn3C2CC2)CC1 | 909 µM (≈ 625 µg/mL) | 454 µM (≈ 313 µg/mL) | 1820 µM (≈ 1250 µg/mL) | 1820 µM (≈ 1250 µg/mL)
5 | CCn1cc(C(=O)N[C@@H](Cc2ccccc2)C(=O)N2CCN(c3cc4c(cc3F)c(=O)c(C(=O)O)cn4C3CC3)CC2)c(=O)c2cc3c(cc21)OCO3 | 433 µM (≈ 313 µg/mL) | 1730 µM (≈ 1250 µg/mL) | 1730 µM (≈ 1250 µg/mL) | 1730 µM (≈ 1250 µg/mL)
6 | CCn1cc(C(=O)N[C@@H](Cc2c[nH]c3ccccc23)C(=O)N2CCN(c3cc4c(cc3F)c(=O)c(C(=O)O)cn4C3CC3)CC2)c(=O)c2cc3c(cc21)OCO3 | 25.6 µM (≈ 19.5 µg/mL) | 51.3 µM (≈ 39 µg/mL) | 411 µM (≈ 313 µg/mL) | 411 µM (≈ 313 µg/mL)
7 | CCn1cc(C(=O)O)c(=O)c2cc(F)c(N3CCN(C(=O)CNC(=O)c4cn(CC)c5nc(C)ccc5c4=O)CC3)cc21 | 2120 µM (≈ 1250 µg/mL) | 33 µM (≈ 19.5 µg/mL) |  | 
8 | CCn1cc(C(=O)O)c(=O)c2cc(F)c(N3CCN(C(=O)CCNC(=O)c4cn(CC)c5nc(C)ccc5c4=O)CC3)cc21 | 2070 µM (≈ 1250 µg/mL) | 2070 µM (≈ 1250 µg/mL) | 2070 µM (≈ 1250 µg/mL) | 2070 µM (≈ 1250 µg/mL)
9 | CCn1cc(C(=O)O)c(=O)c2cc(F)c(N3CCN(C(=O)CCCNC(=O)c4cn(CC)c5nc(C)ccc5c4=O)CC3)cc21 | 505 µM (≈ 312 µg/mL) | 505 µM (≈ 312 µg/mL) | 1010 µM (≈ 625 µg/mL) | 505 µM (≈ 312 µg/mL)
10 | CC[C@H](C)[C@H](NC(=O)c1cn(CC)c2nc(C)ccc2c1=O)C(=O)N1CCN(c2cc3c(cc2F)c(=O)c(C(=O)O)cn3CC)CC1 | 1930 µM (≈ 1250 µg/mL) | 1930 µM (≈ 1250 µg/mL) | 1930 µM (≈ 1250 µg/mL) | 1930 µM (≈ 1250 µg/mL)
11 | CCn1cc(C(=O)O)c(=O)c2cc(F)c(N3CCN(C(=O)[C@H](Cc4ccccc4)NC(=O)c4cn(CC)c5nc(C)ccc5c4=O)CC3)cc21 | 115 µM (≈ 78.1 µg/mL) | 28.6 µM (≈ 19.5 µg/mL) | 459 µM (≈ 313 µg/mL) | 918 µM (≈ 625 µg/mL)
12 | CCn1cc(C(=O)O)c(=O)c2cc(F)c(N3CCN(C(=O)[C@H](Cc4c[nH]c5ccccc45)NC(=O)c4cn(CC)c5nc(C)ccc5c4=O)CC3)cc21 | 868 µM (≈ 625 µg/mL) | 1740 µM (≈ 1250 µg/mL) | 1740 µM (≈ 1250 µg/mL) | 1740 µM (≈ 1250 µg/mL)
13 | CCn1cc(C(=O)O)c(=O)c2cc(F)c(N3CCN(C(=O)CNC(=O)c4cn(CC)c5cc6c(cc5c4=O)OCO6)CC3)cc21 | 2020 µM (≈ 1250 µg/mL) |  |  | 
14 | CCn1cc(C(=O)O)c(=O)c2cc(F)c(N3CCN(C(=O)CCNC(=O)c4cn(CC)c5cc6c(cc5c4=O)OCO6)CC3)cc21 | 61.6 µM (≈ 39 µg/mL) | 30.8 µM (≈ 19.5 µg/mL) | 247 µM (≈ 156 µg/mL) | 493 µM (≈ 313 µg/mL)
15 | CCn1cc(C(=O)O)c(=O)c2cc(F)c(N3CCN(C(=O)CCCNC(=O)c4cn(CC)c5cc6c(cc5c4=O)OCO6)CC3)cc21 |  | 482 µM (≈ 312 µg/mL) | 965 µM (≈ 625 µg/mL) | 
16 | CC[C@H](C)[C@H](NC(=O)c1cn(CC)c2cc3c(cc2c1=O)OCO3)C(=O)N1CCN(c2cc3c(cc2F)c(=O)c(C(=O)O)cn3CC)CC1 | 1850 µM (≈ 1250 µg/mL) | 1850 µM (≈ 1250 µg/mL) | 1850 µM (≈ 1250 µg/mL) | 462 µM (≈ 313 µg/mL)
17 | CCn1cc(C(=O)O)c(=O)c2cc(F)c(N3CCN(C(=O)[C@H](Cc4ccccc4)NC(=O)c4cn(CC)c5cc6c(cc5c4=O)OCO6)CC3)cc21 | 1760 µM (≈ 1250 µg/mL) | 1760 µM (≈ 1250 µg/mL) | 1760 µM (≈ 1250 µg/mL) | 1760 µM (≈ 1250 µg/mL)
18 | CCn1cc(C(=O)O)c(=O)c2cc(F)c(N3CCN(C(=O)[C@H](Cc4c[nH]c5ccccc45)NC(=O)c4cn(CC)c5cc6c(cc5c4=O)OCO6)CC3)cc21 | 1670 µM (≈ 1250 µg/mL) | 1670 µM (≈ 1250 µg/mL) | 1670 µM (≈ 1250 µg/mL) | 1670 µM (≈ 1250 µg/mL)
19 | CCn1cc(C(=O)NCC(=O)N2CCN(c3cc4c(cc3F)c(=O)c(C(=O)O)cn4C3CC3)CC2)c(=O)c2ccc(C)nc21 | 64.7 µM (≈ 39 µg/mL) |  |  | 
20 | CCn1cc(C(=O)NCCC(=O)N2CCN(c3cc4c(cc3F)c(=O)c(C(=O)O)cn4C3CC3)CC2)c(=O)c2ccc(C)nc21 | 15.7 µM (≈ 9.68 µg/mL) | 1010 µM (≈ 625 µg/mL) | 7.8 µM (≈ 4.81 µg/mL) | 2030 µM (≈ 1250 µg/mL)
21 | CC[C@H](C)[C@H](NC(=O)c1cn(CC)c2nc(C)ccc2c1=O)C(=O)N1CCN(c2cc3c(cc2F)c(=O)c(C(=O)O)cn3C2CC2)CC1 | 1900 µM (≈ 1250 µg/mL) | 1900 µM (≈ 1250 µg/mL) | 1900 µM (≈ 1250 µg/mL) | 1900 µM (≈ 1250 µg/mL)
22 | CCn1cc(C(=O)N[C@@H](Cc2ccccc2)C(=O)N2CCN(c3cc4c(cc3F)c(=O)c(C(=O)O)cn4C3CC3)CC2)c(=O)c2ccc(C)nc21 | 1800 µM (≈ 1250 µg/mL) | 1800 µM (≈ 1250 µg/mL) | 1800 µM (≈ 1250 µg/mL) | 1800 µM (≈ 1250 µg/mL)
23 | CCn1cc(C(=O)N[C@@H](Cc2c[nH]c3ccccc23)C(=O)N2CCN(c3cc4c(cc3F)c(=O)c(C(=O)O)cn4C3CC3)CC2)c(=O)c2ccc(C)nc21 | 427 µM (≈ 312 µg/mL) | 3.3 µM (≈ 2.41 µg/mL) | 854 µM (≈ 625 µg/mL) | 1710 µM (≈ 1250 µg/mL)
24 | O=C(O)c1cn(C2CC2)c2cc(N3CCNCC3)c(F)cc2c1=O [CIPROFLOXACIN] | 9.2 µM (≈ 3.05 µg/mL) | 74.6 µM (≈ 24.7 µg/mL) | 2390 µM (≈ 793 µg/mL) | 74.6 µM (≈ 24.7 µg/mL)
25 | CCn1cc(C(=O)O)c(=O)c2ccc(C)nc21 [NALIDIXIC ACID] | 7.2 µM (≈ 1.67 µg/mL) | 3770 µM (≈ 876 µg/mL) | 3770 µM (≈ 876 µg/mL) | 14.5 µM (≈ 3.37 µg/mL)
26 | CCn1cc(C(=O)O)c(=O)c2cc(F)c(N3CCNCC3)cc21 [NORFLOXACIN] | 10.3 µM (≈ 3.29 µg/mL) | 1350 µM (≈ 430 µg/mL) | 1350 µM (≈ 430 µg/mL) | 336 µM (≈ 107 µg/mL)
27 | CCn1cc(C(=O)O)c(=O)c2cc3c(cc21)OCO3 [OXOLINIC ACID] | 7.5 µM (≈ 1.96 µg/mL) | 3910 µM (≈ 1020 µg/mL) | 1960 µM (≈ 511 µg/mL) | 15 µM (≈ 3.92 µg/mL)
